Experimental data published in PubChem BioAssay (NCI).
Where “and” joins values, the source holds several entries; their conditions need not be identical. Identical values can stand only once.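 Exposure lasted 48 hours, with cells grown in 96-well plates and compounds tested at five concentrations. GI50 marks 50% less growth. TGI is the concentration that stops growth completely.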

Key:
Experiment in all cases: NCI anticancer screen, dose series, 48 h
MCF7 breast = tested on: MCF7 breast
SF-268 CNS = tested on: SF-268 CNS
HCT-116 colon = tested on: HCT-116 colon
RPMI-8226 leukemia = tested on: RPMI-8226 leukemia
HT29 colon = tested on: HT29 colon
TK-10 renal = tested on: TK-10 renal
SNB-19 CNS = tested on: SNB-19 CNS
HOP-92 NSCLC = tested on: HOP-92 NSCLC
SK-MEL-5 melanoma = tested on: SK-MEL-5 melanoma
K-562 leukemia = tested on: K-562 leukemia

Row | SMILES | TGI (MCF7 breast) [µM] | TGI (SF-268 CNS) [µM] | TGI (HCT-116 colon) [µM] | TGI (RPMI-8226 leukemia) [µM] | TGI (HT29 colon) [µM] | TGI (TK-10 renal) [µM] | TGI (SNB-19 CNS) [µM] | TGI (HOP-92 NSCLC) [µM] | TGI (SK-MEL-5 melanoma) [µM] | TGI (K-562 leukemia) [µM] | GI50 (MCF7 breast) [µM] | GI50 (SF-268 CNS) [µM] | GI50 (HCT-116 colon) | GI50 (RPMI-8226 leukemia) | GI50 (K-562 leukemia) [µM] | GI50 (HT29 colon) | GI50 (SNB-19 CNS) [µM] | GI50 (HOP-92 NSCLC) [µM] | GI50 (SK-MEL-5 melanoma) [µM]
1 | CC(C)/C(Cl)=N\OC(=O)NNc1ccccc1 | > 100 | > 100 | > 100 | 1.34 | > 100 | > 100 | > 100 | 35.3 | > 54 | – | – | – | – | – | – | – | – | – | –
2 | OCc1ccccc1C1CSCSC1 | – | > 100 | > 100 | – | > 100 | > 100 | – | – | > 100 | > 100 | – | – | – | – | – | – | – | – | –
3 | CCOC(=O)C1CC(O)C(=O)N1C (configuration not stated) | > 100 | – | > 100 | > 100 | > 100 | > 100 | > 100 | > 100 | > 100 | – | – | – | – | – | – | – | – | – | –
4 | C[C@]12CC/C(=N\O)C=C1CC[C@@H]1[C@@H]2CC[C@]2(C)C(=N/O)/C(=C/c3cccnc3)C[C@@H]12 | 29.2 | – | > 100 | 8.95 | 79.5 | 59.3 | > 100 | 63.5 | – | 27.7 | – | – | – | – | – | – | – | – | –
5 | COc1cc([C@@H]2c3cc4c(cc3C[C@H]3COC(=O)[C@@H]32)OCO4)cc(OC)c1OC | 2.03 | > 50 | – | 6.57 | – | – | > 7.93 | – | > 7.93 | 21.9 | 0.00506 | 0.00581 | 0.0026 µM and 0.00848 µM | 0.00382 µM and 0.01 µM | 0.00404 | 0.00294 µM and 0.00647 µM | 0.00666 | 0.00752 | 0.00397
6 | CC(C)=CC1C(C(=O)O)C1(C)C (configuration not stated) | > 750 | > 750 | > 750 | > 750 | > 750 | – | > 750 | > 750 | > 750 | > 750 | – | – | – | – | – | – | – | – | –
7 | COc1ccc(CNc2nc3ccc(C(F)(F)F)cc3nc2-c2ccccc2)cc1OC | – | > 100 | > 100 | > 100 | > 100 | > 100 | > 100 | 15.5 | – | – | – | – | – | – | – | – | – | – | –
8 | COc1cc2c(cc1OC)C(=O)/C(=C/c1cc(C)c(O)c(C)c1)C2 | > 100 | > 100 | – | > 100 | – | > 100 | > 100 | > 100 | > 100 | > 100 | – | – | – | – | – | – | – | – | –
9 | CN(C)c1ccc(/C(Br)=C2\OC(=O)c3ccccc32)cc1 | > 100 | > 100 | > 100 | 71.7 | > 100 | > 100 | > 100 | – | > 100 | > 100 | – | – | – | – | – | – | – | – | –
10 | O=C(CCc1ccc(O)cc1)c1c(O)cc(O)cc1OC1OC(CO)C(O)C(O)C1O (configuration not stated) | – | > 100 | > 100 | – | > 100 | > 100 | – | > 100 | > 100 | > 100 | – | – | – | – | – | – | – | – | –
11 | N#CC(C#N)=C1CCCS(=O)(=O)c2ccccc21 | > 100 | > 100 | > 100 | > 100 | > 100 | > 100 | > 100 | > 100 | – | > 100 | – | – | – | – | – | – | – | – | –
12 | CC(=O)/C(=C/n1c(=S)sc2ccccc21)C(=O)Nc1ccccc1C | > 100 | > 100 | > 100 | – | > 100 | > 100 | > 100 | > 100 | > 100 | – | – | – | – | – | – | – | – | – | –
13 | Cc1cc(C)c2c(n1)S(=O)(=O)N(CCCN1CCN(c3cccc(C(F)(F)F)c3)CC1)/C(=C(\O)c1ccc(Cl)cc1)C2=O | 14 | 21.2 | 11.9 | – | 13.3 | 11.9 | 16.6 | 8.35 | 6.22 | > 100 | – | – | – | – | – | – | – | – | –
14 | O=c1nc2c(c(-c3cccc(Cl)c3)[nH]1)COC/C2=C\c1cccc(Cl)c1 | > 100 | > 100 | > 100 | > 100 | – | > 100 | > 100 | > 100 | > 100 | > 100 | – | – | – | – | – | – | – | – | –
15 | CCOC(=O)C(=O)N1C(C)=C(C(=O)OCC)CC(C(=O)OCC)=C1C | > 100 | – | > 100 | > 100 | – | > 100 | > 100 | > 100 | > 100 | > 100 | – | – | – | – | – | – | – | – | –
16 | O=C1C(Cl)N(c2ccccc2)C1c1c[nH]c2ccccc12 (configuration not stated) | – | > 100 | > 100 | > 100 | > 100 | > 100 | > 100 | > 100 | > 100 | > 100 | – | – | – | – | – | – | – | – | –
17 | O=C1/C(=C/c2ccc(F)cc2)CNC/C1=C\c1ccc(F)cc1 | 8.83 | 4.06 | 0.915 | – | 7.4 | 6.71 | 6.2 | > 21.5 | 3.02 | – | – | – | – | – | – | – | – | – | –
18 | COC1C=CC23c4cc5c(cc4C(O)OC2CN(C)C3C1)OCO5 (configuration not stated) | – | 26.9 | 10.1 | 8.34 | – | – | 7.36 | – | 1.65 | 14.3 | – | – | – | – | – | – | – | – | –
19 | CC(=O)CC(=O)c1cc2c(=O)oc(C)cc2oc1=O | > 37.5 | > 37.5 | > 37.5 | > 37.5 | > 37.5 | > 37.5 | > 37.5 | – | > 37.5 | > 37.5 | – | – | – | – | – | – | – | – | –
20 | Cc1cc2cccc(Cl)c2nc1C(=O)c1ccccc1 | – | > 100 | > 100 | > 100 | – | > 100 | > 100 | – | > 100 | > 100 | – | – | – | – | – | – | – | – | –
21 | C(=Nc1ccc(-c2nc3ccccc3s2)cc1)c1ccco1 | – | > 100 | > 100 | > 100 | > 100 | 8.51 | > 100 | > 100 | > 100 | > 100 | – | – | – | – | – | – | – | – | –
22 | Cc1ccc(C2=Nc3c(c(C)nn3-c3ccccc3)N=C(C(=O)O)C2)cc1 | > 10 | > 10 | > 10 | – | > 10 | > 10 | > 10 | > 10 | > 10 | > 10 | – | – | – | – | – | – | – | – | –
23 | COc1cccc(C2c3cc4c(cc3OC(N3CCCC3)C2C)OCO4)c1OC (configuration not stated) | > 100 | 21 | 5.99 | 13.2 | 11.3 | > 100 | 5.33 | – | 12.5 | 30.5 | – | – | – | – | – | – | – | – | –
24 | C=CCCCC12CCCc3cccc(c31)NC2=O (configuration not stated) | – | – | 26.4 | 47.3 | – | 42.4 | 61.9 | 31.8 | 34.2 | 78.3 | – | – | – | – | – | – | – | – | –
